Experimental data reported in patent US20250085283A1, “METHOD FOR QUANTIFYING NICOTINAMIDE ADENINE DINUCLEOTIDE (NAD+) OR NICOTINAMIDE MONONUCLEOTIDE (NMN), AND KIT AND FILTER PAPER FOR PERFORMING THE METHOD” (Teijin Limited, priority 2022, published 2025).
Values belong to the compound of their own block, whether it stands above or below them.

What was measured:
Assay type in all cases: physicochemical, human
[1] = Chilled storage stability of NAD+ and NMN in blood spotted on filter paper (DBS, LC-MS/MS); details: for Storage stability (mean): vs storage 0 days
Procedure: (§1) A filter paper, to which blood derived from a test subject is added (i.e., corresponding to a filter paper in Step 1 of the present invention), was searched for the optimal one for quantifying NAD+ and NMN when the filter paper with added blood derived from the test subject is stored in the refrigerator for a certain period of time.
From 5 subjects (adult men and women) per test, approximately 120 μL of blood (amount of 2 collection containers of the kit) was sampled by self-collection using an Micro Blood Collection Kit (Micro Blood Science Co., Ltd.), and was left to stand on ice until sample processing. The subjects were fasted on the morning of the sampling day, and samplings were performed around 9:00 am. The test was performed four times in total, with a total of 19 people performing evaluations, excluding one person due to insufficient sample blood volume.
The sampled blood was collected into 1.5 mL microtubes for each subject and mixed by gentle pipetting. Four types of filter papers (Whatman FTA DMPK-A Card/GE healthcare, QIAcard FTA DMPK-B Card/QIAGEN, QIAcard FTA DMPK-C Card/QIAGEN, Whatman 903 Protein saver card/Cytiva) were each spotted with 5 μL of blood (dropped/added) at multiple areas, sealed in a moisture absorption standard pouch (Moisture absorption-kun (registered trademark)/Maruto Sangyo Co., Ltd.), and stored in the refrigerator. Next, after chilled storing the blood-spotted filter paper for 2 days, 2 weeks (14 days or 15 days), or 1 month (30 days), the blood-spotted areas were cut out and collected in a 2 mL microtube. After adding 300 μL of a mixed aqueous solution of internal standard substances (NAD+-d4 and NMN-d4/Toronto Research Chemicals, Inc.) thereto and stirring using a vortex mixer, the mixture was mixed with a micromixer (TOMY MICRO TUBE MIXER MT-400, stirring speed 5) for 30 minutes at room temperature. The blood extract solution was dispensed by each 150 μL portion into a microtube, 300 μL of acetonitrile was added thereto, and the mixture was stirred using a vortex mixer, followed by centrifugation (24,250×g, 10 minutes, 4° C.). After centrifugation, 40 μL of the supernatant was dispensed into a vial and measured by LC-MS/MS.
In contrast, as a sample for initial values, 5 μL of blood was collected into a 2 mL microtube (no spotted filter paper), and 300 μL of a mixed aqueous solution of internal standard substances (NAD-d4 and NMN-d4/Toronto Research Chemicals, Inc.) was added thereto and stirred using a vortex mixer, and then the mixture was mixed using a micromixer (TOMY MICRO TUBE MIXER MT-400, stirring speed 5) for 30 minutes at room temperature. The blood extract solution was dispensed by each 150 μL portion into a microtube, 300 μL of acetonitrile was added thereto, and the mixture was stirred using a vortex mixer, followed by centrifugation (24,250×g, 10 minutes, 4° C.). After centrifugation, 40 μL of the supernatant was dispensed into a vial and measured by LC-MS/MS.

[2] = Room temperature storage stability of NAD+ and NMN in blood spotted on filter paper (DBS, LC-MS/MS); details: for Storage stability (mean): vs storage 0 days
Procedure: as §1, with “at room temperature” for “in the refrigerator”
A part of the blood spotted-filter paper prepared in Example 2 was sealed in a moisture absorption standard pouch (Moisture absorption-kun (registered trademark)/Maruto Sangyo Co., Ltd.) and then stored at room temperature. After storage at room temperature for 2 days, 1 week (7 days), or 2 weeks (15 days), the blood-spotted areas were cut out and collected in a 2 mL microtube. After performing the same treatment as in Example 2, measurement by LC-MS/MS was performed under the same conditions as in Example 2.

[3] = Storage stability of extract solution (frozen storage 71 days); details: frozen 71 days, vs storage 0 days
Source text: A filter paper with added blood derived from a test subject is brought into contact with a solvent (extraction buffer) to obtain the solvent after contact (hereinafter may be abbreviated as extract solution), which storage stability was investigated.
A part of the blood extract solution (100% water) from the filter paper obtained and stored in Example 2 (15 days of chilled storage) and a part of the solution for LC-MS/MS measurement (water containing 67% acetonitrile) were frozen-stored. After 71 days of frozen storage, the supernatant of the former obtained by adding twice the amount of acetonitrile thereto, mixing and centrifuging (24,250×g, 10 minutes, 4° C.), and the supernatant of the latter obtained by centrifuging (24,250×g, 10 minutes, 4° C.) the solution after storage were both measured by LC-MS/MS under the same conditions as in Example 2.

[4] = human blood on 903 card, chilled storage for 1 month
[5] = human blood on 903 card, chilled storage for 2 weeks
[6] = human blood on 903 card, chilled storage for 2 days
[7] = human blood on DMPK-A card, chilled storage for 1 month
[8] = human blood on DMPK-A card, chilled storage for 2 weeks
[9] = human blood on DMPK-A card, chilled storage for 2 days
[10] = human blood on DMPK-B card, chilled storage for 1 month
[11] = human blood on DMPK-B card, chilled storage for 2 weeks
[12] = human blood on DMPK-B card, chilled storage for 2 days
[13] = human blood on DMPK-C card, chilled storage for 1 month
[14] = human blood on DMPK-C card, chilled storage for 2 weeks
[15] = human blood on DMPK-C card, chilled storage for 2 days
[16] = human blood on 903 card, room temperature storage for 2 weeks
[17] = human blood on 903 card, room temperature storage for 2 days
[18] = human blood on DMPK-A card, room temperature storage for 2 weeks
[19] = human blood on DMPK-A card, room temperature storage for 2 days
[20] = human blood on DMPK-B card, room temperature storage for 1 week
[21] = human blood on DMPK-B card, room temperature storage for 2 weeks
[22] = human blood on DMPK-B card, room temperature storage for 2 days
[23] = human blood on DMPK-C card, room temperature storage for 2 weeks
[24] = human blood on DMPK-C card, room temperature storage for 2 days

Storage stability, Evaluation [1, 4]: Good: (Good (≥70%)) | Storage stability (mean) [1, 4]: 82.6% | Storage stability, Evaluation [1, 5]: Good: (Good (≥70%)) | Storage stability (mean) [1, 5]: 77.2% | Storage stability, Evaluation [1, 6]: Good: (Good (≥70%)) | Storage stability (mean) [1, 6]: 74.1% | Storage stability, Evaluation [1, 7]: Good: (Good (≥70%)) | Storage stability (mean) [1, 7]: 71.8% | Storage stability, Evaluation [1, 8]: Good: (Good (≥70%)) | Storage stability (mean) [1, 8]: 79.1% | Storage stability, Evaluation [1, 9]: Good: (Good (≥70%)) | Storage stability (mean) [1, 9]: 81.5% | Storage stability, Evaluation [1, 10]: Good: (Good (≥70%)) | Storage stability (mean) [1, 10]: 79.8% | Storage stability, Evaluation [1, 11]: Excellent: (Excellent (≥85%)) | Storage stability (mean) [1, 11]: 87.8% | Storage stability, Evaluation [1, 12]: Good: (Good (≥70%)) | Storage stability (mean) [1, 12]: 80.7% | Storage stability, Evaluation [1, 13]: Average: (Average (≥50%)) | Storage stability (mean) [1, 13]: 54.3% | Storage stability, Evaluation [1, 14]: Average: (Average (≥50%)) | Storage stability (mean) [1, 14]: 66.6% | Storage stability, Evaluation [1, 15]: Good: (Good (≥70%)) | Storage stability (mean) [1, 15]: 70.1% | Storage stability, Evaluation [2, 16]: Average (Average (≥50%)) | Storage stability (mean) [2, 16]: 50.3% | Storage stability, Evaluation [2, 17]: Average (Average (≥50%)) | Storage stability (mean) [2, 17]: 66.2% | Storage stability, Evaluation [2, 18]: Average: (Average (≥50%)) | Storage stability (mean) [2, 18]: 51.6% | Storage stability, Evaluation [2, 19]: Good: (Good (≥70%)) | Storage stability (mean) [2, 19]: 71.6% | Storage stability, Evaluation [2, 20]: Excellent: (Excellent (≥85%)) | Storage stability (mean) [2, 20]: 87.2% | Storage stability, Evaluation [2, 21]: Average: (Average (≥50%)) | Storage stability (mean) [2, 21]: 67.6% | Storage stability, Evaluation [2, 22]: Good: (Good (≥70%)) | Storage stability (mean) [2, 22]: 82.0% | Storage stability, Evaluation [2, 23]: Average (Average (≥50%)) | Storage stability (mean) [2, 23]: 50.2% | Storage stability, Evaluation [2, 24]: Average (Average (≥50%)) | Storage stability (mean) [2, 24]: 55.9% | Storage stability (mean) ([3]; 903 card chilled 15 days, extract solution 100% water): 266.3% | Storage stability (mean) ([3]; 903 card chilled 15 days, extract solution with twice the amount of acetonitrile added): 92.1% | Storage stability (mean) ([3]; DMPK-A card chilled 15 days, extract solution 100% water): 145.8% | Storage stability (mean) ([3]; DMPK-A card chilled 15 days, extract solution with twice the amount of acetonitrile added): 89.6% | Storage stability (mean) ([3]; DMPK-B card chilled 15 days, extract solution 100% water): 93.1% | Storage stability (mean) ([3]; DMPK-B card chilled 15 days, extract solution with twice the amount of acetonitrile added): 100.0% | Storage stability (mean) ([3]; DMPK-C card chilled 15 days, extract solution 100% water): 200.6% | Storage stability (mean) ([3]; DMPK-C card chilled 15 days, extract solution with twice the amount of acetonitrile added): 73.6%
SMILES: NC(=O)c1ccc[n+]([C@@H]2O[C@H](COP(=O)([O-])OP(=O)(O)OC[C@H]3O[C@@H](n4cnc5c(N)ncnc54)[C@H](O)[C@@H]3O)[C@@H](O)[C@H]2O)c1 [NAD+, nicotinamide adenine dinucleotide]

Storage stability (mean) [1, 4]: 56.3% | Storage stability, Evaluation [1, 5]: Average: (Average (≥50%)) | Storage stability (mean) [1, 5]: 64.5% | Storage stability, Evaluation [1, 6]: Average: (Average (≥50%)) | Storage stability (mean) [1, 6]: 60.1% | Storage stability, Evaluation [1, 7]: Excellent: (Excellent (≥85%)) | Storage stability (mean) [1, 7]: 99.9% | Storage stability, Evaluation [1, 8]: Good: (Good (≥70%)) | Storage stability (mean) [1, 8]: 80.6% | Storage stability, Evaluation [1, 9]: Good: (Good (≥70%)) | Storage stability (mean) [1, 9]: 73.1% | Storage stability, Evaluation [1, 10]: Good: (Good (≥70%)) | Storage stability (mean) [1, 10]: 78.6% | Storage stability, Evaluation [1, 11]: Excellent: (Excellent (≥85%)) | Storage stability (mean) [1, 11]: 93.6% | Storage stability, Evaluation [1, 12]: Excellent: (Excellent (≥85%)) | Storage stability (mean) [1, 12]: 95.4% | Storage stability, Evaluation [1, 14]: Average: (Average (≥50%)) | Storage stability (mean) [1, 14]: 52.9% | Storage stability, Evaluation [1, 15]: Average: (Average (≥50%)) | Storage stability (mean) [1, 15]: 68.4% | Storage stability, Evaluation [2, 17]: Good (Good (≥70%)) | Storage stability (mean) [2, 17]: 79.8% | Storage stability, Evaluation [2, 18]: Excellent: (Excellent (≥85%)) | Storage stability (mean) [2, 18]: 124.2% | Storage stability, Evaluation [2, 19]: Excellent: (Excellent (≥85%)) | Storage stability (mean) [2, 19]: 122.7% | Storage stability, Evaluation [2, 20]: Average: (Average (≥50%)) | Storage stability (mean) [2, 20]: 69.1% | Storage stability, Evaluation [2, 21]: Average: (Average (≥50%)) | Storage stability (mean) [2, 21]: 66.6% | Storage stability, Evaluation [2, 22]: Excellent: (Excellent (≥85%)) | Storage stability (mean) [2, 22]: 96.5%
SMILES: NC(=O)c1ccc[n+]([C@@H]2O[C@H](COP(=O)([O-])O)[C@@H](O)[C@H]2O)c1 [NMN, nicotinamide mononucleotide]
